SMILES | melting point [°C]
O=C(NCc1ncc(Cl)cc1Cl)c1c(Cl)cccc1Cl [Compound 59, N-[(3,5-dichloro-2-pyridyl)methyl]-2,6-dichlorobenzamide] | 161 to 165
CCOC(=O)C(NC(=O)c1ccc(OC)c(OC)c1)c1ncc(CF)cc1Cl (centres unmarked) | 40 to 43
FC(F)(F)c1cnc(CNC(=S)c2ccccc2Cl)c(Cl)c1 [Compound 701, N-[(3-Chloro-5-trifluoromethyl-2-pyridyl)methyl]-2-chlorobenzenethioamide] | 102 to 105

Next, values leading:

melting point [°C] | SMILES
83 to 84 | CN(Cc1ncc(C(F)(F)F)cc1Cl)C(=O)c1c(Cl)cccc1Cl [Compound 63, N-[(3-Chloro-5-trifluoromethyl-2-pyridyl)methyl]-N-methyl-2,6-dichlorobenzamide]
164 to 168 | O=C(NC(Cc1ccccc1)c1ncc(C(F)(F)F)cc1Cl)c1c(Cl)cccc1Cl (centres unmarked)
